We go through 33 compounds from patent publication US9765037B2, “Compositions and methods for treating toxoplasmosis, cryptosporidiosis, and other apicomplexan protozoan related diseases” (University of Washington Through its Center for …, priority 2010, dated 2017).

pEC50: −log10 of the molar value. Like-named read-outs stand apart in the source and are kept apart here.

The target of data set [1] is PfCDPK1 (Plasmodium falciparum (isolate 3D7), UniProt P62344). The data set can be described thus: biochemical. The following applies: for inhibition at 3 µM: read-out: PfCDPK1 (% inhibition @ 3 uM).
Data set [2] deals with PfCDPK4 (Plasmodium falciparum (isolate 3D7), UniProt Q8IBS5). Kind of data set: biochemical. Particulars: for inhibition at 3 µM: read-out: PfCDPK4 (% inhibition @ 3 uM).
Data set [3] concerns the target CpCDPK1 (Cryptosporidium parvum (strain Iowa II), UniProt A3FQ16). The data set can be described thus: biochemical. It counts as biochemical. The following applies: read-out: IC50 (μM) CpCDPK1.
Data set [4] concerns human promyelocytic leukemia (HL-60). Kind of data set: Growth inhibition of human cell line HL-60.
For data set [5], the system named is human lymphocyte (CRL8155). The data set can be described thus: Growth inhibition of human cell line CRL8155.

CpCDPK1, sequence (A3FQ16 1-538): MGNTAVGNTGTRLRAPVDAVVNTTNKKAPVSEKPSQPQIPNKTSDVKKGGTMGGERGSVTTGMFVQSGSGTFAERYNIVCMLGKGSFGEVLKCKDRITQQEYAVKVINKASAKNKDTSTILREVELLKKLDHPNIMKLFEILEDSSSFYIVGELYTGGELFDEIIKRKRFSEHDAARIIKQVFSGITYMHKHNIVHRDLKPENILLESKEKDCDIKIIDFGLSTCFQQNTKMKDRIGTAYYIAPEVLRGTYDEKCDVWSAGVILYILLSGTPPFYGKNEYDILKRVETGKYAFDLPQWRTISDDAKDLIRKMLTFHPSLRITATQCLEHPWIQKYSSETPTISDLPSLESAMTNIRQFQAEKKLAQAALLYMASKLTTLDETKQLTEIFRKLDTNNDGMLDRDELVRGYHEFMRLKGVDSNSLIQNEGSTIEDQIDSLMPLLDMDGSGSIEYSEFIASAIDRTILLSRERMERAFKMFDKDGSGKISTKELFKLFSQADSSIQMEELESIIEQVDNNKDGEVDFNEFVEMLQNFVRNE

Consider `Nc1ncnc2c1c(-c1ccc(-c3ccccc3)cc1)nn2CC1CCNCC1` [Compound 100], for which the pEC50 (commonly the EC50 on a negative log10 scale, so that one unit is a factor of ten) in data set [1] is 7.13; in data set [2], 6.04.
On to `Nc1ncnc2c1c(-c1ccc3cc(OCc4ccc(Cl)cc4)ccc3c1)nn2CC1CCNCC1` [Compound 39, 3-(6-(4-chlorobenzyloxy)naphthalen-2-yl)-1-(piperidin-4-ylmethyl)-1H-pyrazolo[3,4-d]pyrimidin-4-amine], for which the results for the negative logarithm of the EC50 (pEC50) in data set [1] and in data set [2] were 7.68 and 8.04, respectively.
For `CC(C)COc1ccc2cc(-c3nn(C(C)C)c4ncnc(N)c34)ccc2c1` [Compound 43, 3-(6-isobutoxynaphthalen-2-yl)-1-isopropyl-1H-pyrazolo[3,4-d]pyrimidin-4-amine], the negative logarithm of the EC50 (pEC50) was 6.56 in data set [1] and 5.92 in data set [2].
Regarding `CN(C)c1ccc2cc(-c3nn(CC4CCNCC4)c4ncnc(N)c34)ccc2n1` [Compound 68, 6-(4-amino-1-(piperidin-4-ylmethyl)-1H-pyrazolo[3,4-d]pyrimidin-3-yl)-N,N-dimethylquinolin-2-amine], the IC50 (as a rule, the midpoint of a concentration-inhibition curve) in data set [3] (Table 8) was greater than 3 µM.
Regarding `CC(C)n1nc(-c2ccc3cc(OCc4ccc(C(C)(C)C)cc4)ccc3c2)c2c(N)ncnc21` [Compound 54, 3-(6-(4-tert-butylbenzyloxy)naphthalen-2-yl)-1-isopropyl-1H-pyrazolo[3,4-d]pyrimidin-4-amine], the negative-log EC50 (pEC50) is 7.32 in data set [1] and 6.36 in data set [2].
For `CC(Oc1ccc2cc(-c3nn(C(C)C)c4ncnc(N)c34)ccc2c1)c1ccccc1` (stereo not shown) [Compound 53, 1-isopropyl-3-(6-(1-phenylethoxy)naphthalen-2-yl)-1H-pyrazolo[3,4-d]pyrimidin-4-amine], in that order: 6.27 and 5.79.
Turning to `COc1ccc(-c2nn(C(C)C)c3ncnc(N)c23)cc1` [Compound 7j, 1-isopropyl-3-(4-methoxyphenyl)-1H-pyrazolo[3,4-d]pyrimidin-4-amine], in data set [3], the IC50 stood at 0.41 µM. Further, the inhibition (commonly the relative decrease from the control value, in per cent) at 3 µM in data set [1] was found to be 87%; in data set [2], 30%.
In the case of `CC(C)n1nc(-c2ccc3cc(OCc4cc(F)cc(Cl)c4)ccc3c2)c2c(N)ncnc21` [Compound 52, 3-(6-(3-chloro-5-fluorobenzyloxy)naphthalen-2-yl)-1-isopropyl-1H-pyrazolo[3,4-d]pyrimidin-4-amine], the negative logarithm of the EC50 (pEC50) in data set [1] was 5.97; in data set [2] it was 5.91.
With `CC(C)n1nc(-c2ccc3cc(OCc4ccncc4)ccc3c2)c2c(N)ncnc21` [Compound 55, 1-isopropyl-3-(6-(pyridin-4-ylmethoxy)naphthalen-2-yl)-1H-pyrazolo[3,4-d]pyrimidin-4-amine], the negative logarithm of the EC50 (pEC50) is 6.67 in data set [1] and 6.76 in data set [2].
`Nc1ncnc2c1c(-c1ccc3nccnc3c1)nn2CC1CCNCC1` [Compound 122]: the values for the negative-log EC50 (pEC50) in data set [1] and in data set [2] were 6.32 and less than 5.52, respectively. For the same compound, the “Cell Toxicity HL60, % at 10 μM” value in data set [4] is recorded as less than 30% at 10 μM. Further, the “Cell Toxicity HL60, % at 30 μM” value in data set [4] (30 μM) is listed as less than 30% at 30 μM. For the same compound, the “Cell Toxicity CRL8155, % at 10 μM” value in data set [5] is recorded as less than 30% at 10 μM. Also, in data set [5] (30 μM), the “Cell Toxicity CRL8155, % at 30 μM” value is recorded as less than 30% at 30 μM.
Consider `Cc1ccccc1COc1ccc2cc(-c3nn(C(C)C)c4ncnc(N)c34)ccc2c1` [Compound 49, 1-isopropyl-3-(6-(2-methylbenzyloxy)naphthalen-2-yl)-1H-pyrazolo[3,4-d]pyrimidin-4-amine], for which the values for the pEC50 in data set [1] and in data set [2] were 6.16 and 5.63, respectively.
In the case of `NCCCCCC(=O)Nc1nc2ccc(C(=O)c3ccccc3)cc2[nH]1` [Compound 105], the “Cell Toxicity HL60, % at 10 μM” value in data set [4] was less than 30% at 10 μM. Also, the “Cell Toxicity CRL8155, % at 10 μM” value in data set [5] is listed as less than 30% at 10 μM.
Regarding `COC(=O)Nc1nc2ccc(C(O)c3ccccc3)cc2[nH]1` (stereo not shown) [Compound 82], the negative-log EC50 (pEC50) in data set [1] and in data set [2] was less than 5.52 in each case.
With `CC(C)n1nc(-c2ccc3cc(OCc4ccccc4Cl)ccc3c2)c2c(N)ncnc21` [Compound 46, 3-(6-(2-chlorobenzyloxy)naphthalen-2-yl)-1-isopropyl-1H-pyrazolo[3,4-d]pyrimidin-4-amine], the pEC50 is 6.32 in data set [1] and less than 5.52 in data set [2]. Further, in data set [4], the “Cell Toxicity HL60, % at 10 μM” value is on record as less than 30% at 10 μM. Further, the “Cell Toxicity CRL8155, % at 10 μM” value in data set [5] is listed as less than 30% at 10 μM.
Consider `CC(C)n1nc(-c2ccc3cc(OCc4ccc(CC(F)(F)F)c(Cl)c4)ccc3c2)c2c(N)ncnc21` [Compound 51, 3-(6-(3-chloro-4-(2,2,2-trifluorethyl)benzyloxy)naphthalen-2-yl)-1-isopropyl-1H-pyrazolo[3,4-d]pyrimidin-4-amine], for which the results for the pEC50 in data set [1] and in data set [2] were 5.80 and 6.59, respectively.
Take `CC(C)n1nc(-c2ccc3c(ccn3C)c2)c2c(N)ncnc21` [Compound 20, 1-isopropyl-3-(1-methyl-1H-indol-5-yl)-1H-pyrazolo[3,4-d]pyrimidin-4-amine]: the IC50 in data set [3] (Table 8) came out at 0.003 µM. Further, the pEC50 in data set [1] is 6.51; in data set [2], 6.64. Further, in data set [4], the “Cell Toxicity HL60, % at 10 μM” value is less than 30% at 10 μM. Further, in data set [5], the “Cell Toxicity CRL8155, % at 10 μM” value was less than 30% at 10 μM.
`Cc1ccc(C)c(COc2ccc3cc(-c4nn(C(C)C)c5ncnc(N)c45)ccc3c2)c1` [Compound 48, 3-(6-(2,5-dimethylbenzyloxy)naphthalen-2-yl)-1-isopropyl-1H-pyrazolo[3,4-d]pyrimidin-4-amine]: the negative logarithm of the EC50 (pEC50) in data set [1] is 5.64; in data set [2], less than 5.52.
For `Cn1ccc2cc(-c3nn(CC4CCNCC4)c4ncnc(N)c34)ccc21` [Compound 57, 3-(1-methyl-1H-indol-5-yl)-1-(piperidin-4-ylmethyl)-1H-pyrazolo[3,4-d]pyrimidin-4-amine], in that order: 6.15 and 6.61.
On to `O=C(NCCO)Nc1nc2ccc(C(=O)c3ccccc3)cc2[nH]1` [Compound 90], for which, in data set [4], the “Cell Toxicity HL60, % at 10 μM” value is listed as less than 30% at 10 μM. Besides, in data set [5], the “Cell Toxicity CRL8155, % at 10 μM” value is listed as less than 30% at 10 μM.
For `CC(C)(C)n1nc(-c2ccc3oc(-c4ccccc4)nc3c2)c2c(N)ncnc21` [Compound 131], the results for the negative-log EC50 (pEC50) in data set [1] and in data set [2] were 6.58 and less than 5.52, respectively.
Regarding `Cc1cccc(-c2nn(C(C)C)c3ncnc(N)c23)c1` [Compound 7g, 1-isopropyl-3-m-tolyl-1H-pyrazolo[3,4-d]pyrimidin-4-amine], the IC50 in data set [3] stood at 0.114 µM. The inhibition at 3 µM was found to be 72% in data set [1] and 64% in data set [2].
As for `COc1ccc(-c2nn(C(C)C)c3ncnc(N)c23)cc1C` [Compound 7m, 1-isopropyl-3-(4-methoxy-3-methylphenyl)-1H-pyrazolo[3,4-d]pyrimidin-4-amine], in data set [3], the IC50 came out at 0.017 µM.
On to `O=C(CCCC1CCNCC1)Nc1nc2ccc(C(=O)c3ccccc3)cc2[nH]1` [Compound 115], for which the “Cell Toxicity HL60, % at 10 μM” value in data set [4] is less than 30% at 10 μM. In data set [5], the “Cell Toxicity CRL8155, % at 10 μM” value is on record as less than 30% at 10 μM.
Turning to `N#Cc1cccc(-c2ccc(-c3nn(CC4CCNCC4)c4ncnc(N)c34)cc2)c1` [Compound 74, 4′-(4-amino-1-(piperidin-4-ylmethyl)-1H-pyrazolo[3,4-d]pyrimidin-3-yl)biphenyl-3-carbonitrile], the pEC50 in data set [1] was 6.46; in data set [2], 5.99.
The matching figures for `Cc1ccc(C(F)(F)F)cc1COc1ccc2cc(-c3nn(C(C)C)c4ncnc(N)c34)ccc2c1` [Compound 50, 1-isopropyl-3-(6-(2-methyl-5-(trifluoromethyl)benzyloxy)naphthalen-2-yl)-1H-pyrazolo[3,4-d]pyrimidin-4-amine]: 5.68 and less than 5.52.
With `Cc1cccc2[nH]c(-c3nn(C(C)C)c4ncnc(N)c34)cc12` [Compound 25, 1-isopropyl-3-(4-methyl-1H-indol-2-yl)-1H-pyrazolo[3,4-d]pyrimidin-4-amine], the negative logarithm of the EC50 (pEC50) in data set [2] was 6.24. Besides, the “Cell Toxicity HL60, % at 10 μM” value in data set [4] is given as 47% toxicity at. Besides, the “Cell Toxicity CRL8155, % at 10 μM” value in data set [5] is given as 38% toxicity at.
With `Nc1ncnc2c1c(I)nn2CC1CCNCC1` [Compound 98], the “Cell Toxicity HL60, % at 10 μM” value in data set [4] is reported as less than 30% at 10 μM. The “Cell Toxicity CRL8155, % at 10 μM” value in data set [5] is less than 30% at 10 μM.
In the case of `CC(C)n1nc(-c2ccc3cc(OC(=O)c4cccc(Cl)c4)ccc3c2)c2c(N)ncnc21` [Compound 85], the pEC50 in data set [1] is 6.64; in data set [2] it was 6.32.
Take `CC(C)(C)n1nc(-c2ccc(-c3nn(C(C)(C)C)c4ncnc(N)c34)cc2)c2c(N)ncnc21` [Compound 141]: in data set [1], the pEC50 was 5.83 and the inhibition at 3 µM came to 92%. In data set [2], the pEC50 was 5.69 and the inhibition at 3 µM worked out at 55%.
On to `CC(C)(C)c1nc(-c2cnc3ccccc3c2)c2c(N)nccn12` [Compound 72, 3-tert-butyl-1-(quinolin-3-yl)imidazo[1,5-a]pyrazin-8-amine], for which the pEC50 in data set [1] was 6.02; in data set [2], 6.62. Besides, in data set [4], the “Cell Toxicity HL60, % at 10 μM” value is listed as less than 30% at 10 μM. Further, the “Cell Toxicity CRL8155, % at 10 μM” value in data set [5] is recorded as less than 30% at 10 μM.
For `CC(C)n1nc(-c2ccc3cc(OCc4cccc(Cl)c4)ccc3c2)c2c(N)ncnc21` [Compound 47, 3-(6-(3-chlorobenzyloxy)naphthalen-2-yl)-1-isopropyl-1H-pyrazolo[3,4-d]pyrimidin-4-amine], the IC50 in data set [3] (Table 8) amounted to 0.272 µM. In addition, the negative-log EC50 (pEC50) was 5.89 in data set [1] and 5.84 in data set [2].
On to `CC(C)COc1ccc2cc(-c3nn(C(C)(C)C)c4ncnc(N)c34)ccc2c1` [Compound 130], for which the negative-log EC50 (pEC50) in data set [1] was 5.53; in data set [2], less than 5.52.
Turning to `CC(C)n1nc(-c2ccc3cc(OCc4ccc(Cl)cc4)ccc3c2)c2c(N)ncnc21` [Compound 56, 3-(6-(4-chlorobenzyloxy)naphthalen-2-yl)-1-isopropyl-1H-pyrazolo[3,4-d]pyrimidin-4-amine], the half-maximal inhibitory concentration (IC50) in data set [3] (Table 8) amounted to 0.105 µM. Besides, the figures for the pEC50 in data set [1] and in data set [2] were 5.94 and 6.05, respectively.
